Results reported in PubChem BioAssay AID328 (DTP/NCI, 2004).
“And” between values parts separate entries of the source, which are not always exact repeats. Identical values can stand only once. Inconclusive results and toxic doses are left out.

System: BDF1 mice, P388 leukemia ip, median survival T/C
Experiment: NCI In Vivo Anticancer Drug Screen. Data for tumor model P388 Leukemia (intraperitoneal) in B6D2F1 (BDF1) mice
Conditions: endpoint: median survival time, higher = longer survival
Summary of the method: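 Steps: implant the tumour, treat one group with compound and another with vehicle, record survival, then divide treated by control.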

[1] = dose: 60.0 mg/kg/injection, schedule: Q01DX009 (ip), vehicle: saline
[2] = dose: 50.0 mg/kg/injection, schedule: Q01DX009 (ip), vehicle: saline with Tween-80
[3] = dose: 100.0 mg/kg/injection, schedule: Q01DX009 (ip), vehicle: saline with Tween-80
[4] = dose: 200.0 mg/kg/injection, schedule: Q01DX009 (ip), vehicle: saline with Tween-80
[5] = dose: 100.0 mg/kg/injection, schedule: Q04DX003 (ip), vehicle: saline with Tween-80
[6] = dose: 200.0 mg/kg/injection, schedule: Q01DX009 (ip), vehicle: Klucel (hydroxypropylcellulose) (HPC)
[7] = dose: 50.0 mg/kg/injection, schedule: Q01DX009 (ip), vehicle: saline
[8] = dose: 100.0 mg/kg/injection, schedule: Q01DX009 (ip), vehicle: saline
[9] = dose: 200.0 mg/kg/injection, schedule: Q01DX009 (ip), vehicle: saline
[10] = dose: 200.0 mg/kg/injection, schedule: Q04DX003 (ip), vehicle: saline with Tween-80
[11] = dose: 400.0 mg/kg/injection, schedule: Q04DX003 (ip), vehicle: saline with Tween-80
[12] = dose: 100.0 mg/kg/injection, schedule: Q01DX001 (ip), vehicle: Klucel (hydroxypropylcellulose) (HPC)
[13] = dose: 200.0 mg/kg/injection, schedule: Q01DX001 (ip), vehicle: Klucel (hydroxypropylcellulose) (HPC)
[14] = dose: 25.0 mg/kg/injection, schedule: Q01DX009 (ip), vehicle: saline with Tween-80
[15] = dose: 50.0 mg/kg/injection, schedule: Q01DX009 (ip), vehicle: Klucel (hydroxypropylcellulose) (HPC)
[16] = dose: 100.0 mg/kg/injection, schedule: Q04DX003 (ip), vehicle: Klucel (hydroxypropylcellulose) (HPC)
[17] = dose: 200.0 mg/kg/injection, schedule: Q04DX003 (ip), vehicle: Klucel (hydroxypropylcellulose) (HPC)
[18] = dose: 400.0 mg/kg/injection, schedule: Q04DX003 (ip), vehicle: Klucel (hydroxypropylcellulose) (HPC)
[19] = dose: 25.0 mg/kg/injection, schedule: Q01DX009 (ip), vehicle: saline
[20] = dose: 12.5 mg/kg/injection, schedule: Q01DX009 (ip), vehicle: saline
[21] = dose: 100.0 mg/kg/injection, schedule: Q01DX009 (ip), vehicle: Klucel (hydroxypropylcellulose) (HPC)

## NNC(=O)C(O)C(O)C(=O)NN (stereo not given)
[1]
  T/C: 96 % of control
dose: 120.0 mg/kg/injection, schedule: Q01DX009 (ip), vehicle: saline
  T/C: 93 % of control

## O=C1Nc2ccc(Br)cc2C1=Nc1ccc2c(c1)OCO2
[2]
  T/C: 113 % of control
[3]
  T/C: 111 % of control
[4]
  T/C: 108 % of control
dose: 400.0 mg/kg/injection, schedule: Q01DX009 (ip), vehicle: saline with Tween-80
  T/C: 111 % of control

## CCOC(=O)NC(C)(C)CN(C(=O)OCC)c1ccccc1
dose: 44.0 mg/kg/injection, schedule: Q04DX003 (ip), vehicle: saline with Tween-80
  T/C: 95 % of control
dose: 66.0 mg/kg/injection, schedule: Q04DX003 (ip), vehicle: saline with Tween-80
  T/C: 104 % of control
[5]
  T/C: 90 % of control
dose: 150.0 mg/kg/injection, schedule: Q04DX003 (ip), vehicle: saline with Tween-80
  T/C: 95 % of control

## CNC(=S)NN
dose: 100.0 mg/kg/injection, schedule: Q04DX003 (ip), vehicle: saline
  T/C: 100 % of control
dose: 200.0 mg/kg/injection, schedule: Q01DX001 (ip), vehicle: saline
  T/C: 100 % of control
dose: 200.0 mg/kg/injection, schedule: Q04DX003 (ip), vehicle: saline
  T/C: 90 % of control
dose: 400.0 mg/kg/injection, schedule: Q04DX003 (ip), vehicle: saline
  T/C: 100 % of control

## CCOC(=O)CN1C(=O)C(Cl)=C(Cl)C1=O
dose: 3.12 mg/kg/injection, schedule: Q01DX009 (ip), vehicle: Klucel (hydroxypropylcellulose) (HPC)
  T/C: 95 % of control
dose: 6.25 mg/kg/injection, schedule: Q01DX009 (ip), vehicle: Klucel (hydroxypropylcellulose) (HPC)
  T/C: 95 % of control
dose: 9.2 mg/kg/injection, schedule: Q04DX003 (ip), vehicle: Klucel (hydroxypropylcellulose) (HPC)
  T/C: 100 % of control
dose: 14.0 mg/kg/injection, schedule: Q04DX003 (ip), vehicle: Klucel (hydroxypropylcellulose) (HPC)
  T/C: 91 % of control
dose: 21.0 mg/kg/injection, schedule: Q04DX003 (ip), vehicle: Klucel (hydroxypropylcellulose) (HPC)
  T/C: 91 % of control
dose: 29.0 mg/kg/injection, schedule: Q04DX003 (ip), vehicle: Klucel (hydroxypropylcellulose) (HPC)
  T/C: 100 % of control

## Nc1cc(Cl)ncn1
[1]
  T/C: 100 % of control
dose: 90.0 mg/kg/injection, schedule: Q01DX009 (ip), vehicle: saline
  T/C: 97 % of control
dose: 175.0 mg/kg/injection, schedule: Q01DX009 (ip), vehicle: saline
  T/C: 97 % of control
[6]
  T/C: 95 % of control

## COc1cccc2c1C(=O)c1c(O)c3c(c(O)c1C2=O)C[C@@](O)(C(=O)CO)C[C@@H]3OC1CC(NC(=O)CN)C(O)C(C)O1 (stereo not given in full)
dose: 1.56 mg/kg/injection, schedule: Q01DX009 (ip), vehicle: other
  T/C: 108 % of control
dose: 3.13 mg/kg/injection, schedule: Q01DX009 (ip), vehicle: other
  T/C: 110 % of control
dose: 6.25 mg/kg/injection, schedule: Q01DX009 (ip), vehicle: other
  T/C: 105 % of control
dose: 12.5 mg/kg/injection, schedule: Q01DX009 (ip), vehicle: other
  T/C: 99 % of control
dose: 25.0 mg/kg/injection, schedule: Q01DX009 (ip), vehicle: other
  T/C: 114 % of control

## COc1ccc(SC/C(=N\NOS(=O)(=O)c2ccc(C)cc2)c2ccccc2)cc1
[7]
  T/C: 96 % of control
[8]
  T/C: 98 % of control
[9]
  T/C: 109 % of control

## Nc1nc(N)c(N=O)c(Nc2ccc(I)cc2)n1
[3]
  T/C: 108 % of control
[5]
  T/C: 112 % of control
[4]
  T/C: 95 % of control
[10]
  T/C: 108 % of control
[11]
  T/C: 100 % of control

## O=C(NCCNC(=O)c1cccc([N+](=O)[O-])c1O)c1cccc([N+](=O)[O-])c1O
dose: 50.0 mg/kg/injection, schedule: Q01DX001 (ip), vehicle: Klucel (hydroxypropylcellulose) (HPC)
  T/C: 100 % of control
[12]
  T/C: 100 % of control
[13]
  T/C: 104 % of control

## CN(C)P(=O)(Oc1ccccc1)N(C)C
[14]
  T/C: 94 % of control
[2]
  T/C: 120 % of control
[3]
  T/C: 102 % of control and 103 % of control
[4]
  T/C: 100 % of control

## COC(=O)C1=COC2OC3CC1C2C(C)O3 (stereo not given)
dose: 12.5 mg/kg/injection, schedule: Q01DX009 (ip), vehicle: Klucel (hydroxypropylcellulose) (HPC)
  T/C: 99 % of control
dose: 25.0 mg/kg/injection, schedule: Q01DX009 (ip), vehicle: Klucel (hydroxypropylcellulose) (HPC)
  T/C: 98 % of control
[15]
  T/C: 115 % of control

## CC1(C)CC(=O)CC(C)(C)N1O
[16]
  T/C: 100 % of control
[17]
  T/C: 100 % of control
[18]
  T/C: 104 % of control

## O=C(O)C1(O)C(Cl)(Cl)C(Cl)=C(Cl)C1(Cl)Cl
[19]
  T/C: 118 % of control
[7]
  T/C: 122 % of control
[8]
  T/C: 118 % of control

## CCCC(=O)OCc1ccc(Cl)c(Cl)c1
[14]
  T/C: 100 % of control
[2]
  T/C: 108 % of control
[3]
  T/C: 112 % of control

## CCOC(=O)/C(C#N)=C\c1cc(=O)c(OC)co1
[12]
  T/C: 90 % of control
[13]
  T/C: 100 % of control
dose: 400.0 mg/kg/injection, schedule: Q01DX001 (ip), vehicle: Klucel (hydroxypropylcellulose) (HPC)
  T/C: 100 % of control

## O=C1Nc2c(Cl)cc(Cl)cc2C12Nc1ccccc1S2 (stereo not given)
[2]
  T/C: 112 % of control
[3]
  T/C: 96 % of control
[4]
  T/C: 107 % of control

## COc1ccc(CC2=NCCc3cc(OC)c(OC)cc32)cc1OC
[20]
  T/C: 153 % of control
[19]
  T/C: 99 % of control

## C#CC(OC(=O)NC1CCCCC1)(c1ccccc1)c1ccccc1
dose: 16.5 mg/kg/injection, schedule: Q01DX009 (ip), vehicle: saline with Tween-80
  T/C: 98 % of control
[14]
  T/C: 215 % of control
dose: 37.5 mg/kg/injection, schedule: Q01DX009 (ip), vehicle: saline with Tween-80
  T/C: 213 % of control
[2]
  T/C: 190 % of control
dose: 88.0 mg/kg/injection, schedule: Q04DX003 (ip), vehicle: saline with Tween-80
  T/C: 183 % of control
dose: 132.0 mg/kg/injection, schedule: Q04DX003 (ip), vehicle: saline with Tween-80
  T/C: 187 % of control
[10]
  T/C: 116 % of control

## O=c1oc(-c2cc([N+](=O)[O-])ccc2Cl)nc2ccccc12
dose: 25.0 mg/kg/injection, schedule: Q04DX003 (ip), vehicle: saline with Tween-80
  T/C: 95 % of control
[5]
  T/C: 95 % of control

## COC(CC(C)CCCC(C)(C)O)OC (stereo not given)
[15]
  T/C: 110 % of control
[21]
  T/C: 110 % of control
[16]
  T/C: 100 % of control
[6]
  T/C: 110 % of control
[17]
  T/C: 112 % of control

## Nc1ccn(CC(=O)c2ccc(Cl)s2)c(=O)n1
dose: 50.0 mg/kg/injection, schedule: Q01DX009 (ip), vehicle: water
  T/C: 100 % of control
dose: 100.0 mg/kg/injection, schedule: Q01DX009 (ip), vehicle: water
  T/C: 108 % of control
dose: 200.0 mg/kg/injection, schedule: Q01DX009 (ip), vehicle: water
  T/C: 100 % of control

## CCOC(=O)CCC(=O)CC(O)(C(F)(F)F)C(F)(F)Cl (stereo not given)
[5]
  T/C: 100 % of control
[10]
  T/C: 90 % of control
[11]
  T/C: 95 % of control

## COC(OC)c1nc(SC)[nH]c(=O)c1C[N+](C)(C)C
[5]
  T/C: 100 % of control
[10]
  T/C: 100 % of control
[11]
  T/C: 113 % of control

## O=C1NC(=O)C(c2ccccc2)(c2ccccc2)N1CCS
[20]
  T/C: 96 % of control and 104 % of control
[19]
  T/C: 99 % of control and 104 % of control
[7]
  T/C: 93 % of control
[8]
  T/C: 89 % of control and 99 % of control
[9]
  T/C: 112 % of control and 113 % of control

## NC(=S)N/N=C\c1[nH]c(=O)nc2ccccc12
[16]
  T/C: 100 % of control
[17]
  T/C: 100 % of control
[18]
  T/C: 95 % of control

## CN(C=C(C#N)C#N)c1ccccc1
[2]
  T/C: 105 % of control

## CCN1C(=O)CC(=O)N(CC)C1=S
[15]
  T/C: 95 % of control
[21]
  T/C: 91 % of control
[16]
  T/C: 96 % of control
[6]
  T/C: 104 % of control
[17]
  T/C: 92 % of control

## COc1ccc(C(C(N)=O)N2CCCC2)cc1 (stereo not given)
[5]
  T/C: 110 % of control
[10]
  T/C: 120 % of control
[11]
  T/C: 100 % of control

## CC(=O)N1C(=O)N(Cl)C(=O)C1(c1ccc(Cl)cc1)c1ccc(Cl)cc1
dose: 60.0 mg/kg/injection, schedule: Q01DX009 (ip), vehicle: saline with Tween-80
  T/C: 116 % of control
[3]
  T/C: 91 % of control
[5]
  T/C: 113 % of control
[4]
  T/C: 113 % of control
[10]
  T/C: 109 % of control
[11]
  T/C: 122 % of control
